Experimental data reported in ChEMBL document CHEMBL4364277, “Medicinal prospects of antioxidants: A review” (Eur J Med Chem, 2019).
One block for each molecule: values may come before it.

Tests used:
[1] = tested on: Rattus norvegicus; test: Anti-inflammatory activity in rat assessed as inhibition of formalin-induced paw edema administered as po dose pretreated for 1 hr followed by formalin addition measured up to 6 hrs relative to control; assay type: functional
[2] = Anti glycation activity assessed as inhibition of BSA glycation after 7 days in presence of glucose by spectrofluorimetry assay; assay type: functional
[3] = Antioxidant activity assessed as DPPH radical scavenging activity after 30 mins; assay type: functional
[4] = Hemolytic activity in human RBC relative to control; assay type: cell-based, Erythrocyte; details: red blood cells (erythrocytes), read-out: Activity
[5] = tested on: MCF7; test: Cytotoxicity against human MCF7 cells after 48 hrs by MTT assay; assay type: functional, cell-based; details: MCF7, 48 h
[6] = tested on: Rattus norvegicus; test: Anti-inflammatory activity in rat assessed as inhibition of formalin-induced paw edema at 20 mg/kg, po pretreated for 1 hr followed by formalin addition measured up to 6 hrs relative to control; assay type: functional

SMILES: O=c1oc2ccc(Cl)cc2cc1-c1nc2ccccc2[nH]1
inhibition (INH) [1]: 46.75%

IC50 [2]: 240 µM | IC50 [3]: 58.1 µM
SMILES: Oc1ccc(-c2nc3ncc(Cl)cc3[nH]2)c(O)c1

SMILES: O=C(Nc1nc2ccccc2[nH]1)c1cc2ccccc2oc1=O
inhibition (INH) [1]: 42.85%

SMILES: O=C(Cc1cc(=O)oc2cc(O)ccc12)Nc1nc2ccccc2o1
hemolysis [4]: 92.5%

IC50 [2]: 240 µM | IC50 [3]: 72.5 µM
SMILES: Oc1ccc(O)c(-c2nc3ncc(Cl)cc3[nH]2)c1

SMILES: Cc1nnc(N2C(=O)CSC2c2ccccc2[N+](=O)[O-])s1 (centres undefined)
IC50 [5]: 46.3 µM

SMILES: COc1ccc2c(c1)c(CC(=O)O)c(C)n2C(=O)c1ccc(Cl)cc1 [INDOMETHACIN]
inhibition in vivo at 20 mg/kg [6]: 54.5%
